Experimental data taken from US20110082410A1 (priority 2009, published 2011).

Tests used:
[1] = tested on: superficial basal cell carcinomas; settings: low irradiance of range 10-50 mW/cm^2; cited from earlier work
[2] = local anesthesia: infiltrating, spraying or topical solution for transdermal delivery; cited from earlier work
[3] = topical, compared to ALA; cited from earlier work
hair follicle = experiment: Pulsed PDT for removal of unwanted hair with the photosensitizer methylene blue: pain during irradiation; settings: for PAIN: 665 nm

NCC(=O)CCC(=O)O [delta-ALA, δ-Aminolevulinic Acid]
Pain induced by PDT treatment [1]: no significant pain was reported

CCN(CC)CC(=O)Nc1c(C)cccc1C [lidocaine]
Improvement of PDT-associated discomfort and pain [2]: not produced any significant improvement

COC(=O)CCC(=O)CN [methyl-ester-ALA]
Pain during illumination [3]: significantly less pain compared to ALA

CN(C)c1ccc2nc3ccc(=[N+](C)C)cc-3sc2c1 [methylene blue]
PAIN (hair follicle; 5 s CW irradiation, 10 W/cm^2): very painful | Effectiveness of pulsed PDT for removal of unwanted hair (hair follicle; pulsed radiation): effective without pain | PAIN (hair follicle; trial 1: 2 pulses, pulse on 2.5 s, pulse off 0.5 s, 0.33 Hz, 50 J/cm^2, 10 W/cm^2): Very high to unbearable | PAIN (hair follicle; trial 2: 5 pulses, pulse on 1 s, pulse off 0.5 s, 0.67 Hz, 50 J/cm^2, 10 W/cm^2): High | PAIN (hair follicle; trial 3: 10 pulses, pulse on 0.5 s, pulse off 0.5 s, 1.00 Hz, 50 J/cm^2, 10 W/cm^2): Intermediate to small | PAIN (hair follicle; trial 4: 14 pulses, pulse on 0.35 s, pulse off 0.5 s, 1.18 Hz, 50 J/cm^2, 10 W/cm^2): None | PAIN (hair follicle; trial 5: 14 pulses, pulse on 0.35 s, pulse off 0.1 s, 2.22 Hz, 50 J/cm^2, 10 W/cm^2): None
